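Interpolation was linear, between the two tested concentrations surrounding the appropriate level; five concentrations were tested over 48 hours in 96-well plates. The concentration for full growth arrest is given as TGI.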
Tests used:
Assay in all cases: NCI-60 cell line screen, 48 h
786-0 renal = tested on: 786-0 renal
CAKI-1 renal = tested on: CAKI-1 renal
U251 CNS = tested on: U251 CNS
HL-60(TB) leukemia = tested on: HL-60(TB) leukemia
HOP-62 NSCLC = tested on: HOP-62 NSCLC
SF-268 CNS = tested on: SF-268 CNS
MOLT-4 leukemia = tested on: MOLT-4 leukemia
OVCAR-5 ovarian = tested on: OVCAR-5 ovarian
T-47D breast = tested on: T-47D breast
LOX IMVI melanoma = tested on: LOX IMVI melanoma
DU-145 prostate = tested on: DU-145 prostate
SR leukemia = tested on: SR leukemia
HS 578T breast = tested on: HS 578T breast
KM12 colon = tested on: KM12 colon
A549 NSCLC = tested on: A549 NSCLC
SK-MEL-5 melanoma = tested on: SK-MEL-5 melanoma
HCT-116 colon = tested on: HCT-116 colon
SNB-75 CNS = tested on: SNB-75 CNS
A498 renal = tested on: A498 renal
HOP-92 NSCLC = tested on: HOP-92 NSCLC

SMILES | TGI (786-0 renal) [µM] | TGI (CAKI-1 renal) [µM] | TGI (U251 CNS) [µM] | TGI (HL-60(TB) leukemia) [µM] | TGI (HOP-62 NSCLC) [µM] | TGI (SF-268 CNS) [µM] | TGI (MOLT-4 leukemia) [µM] | TGI (OVCAR-5 ovarian) [µM] | TGI (T-47D breast) [µM] | TGI (LOX IMVI melanoma) [µM] | TGI (DU-145 prostate) [µM] | TGI (SR leukemia) [µM] | TGI (HS 578T breast) [µM] | TGI (KM12 colon) [µM] | TGI (A549 NSCLC) [µM] | TGI (SK-MEL-5 melanoma) [µM] | TGI (HCT-116 colon) [µM] | TGI (SNB-75 CNS) [µM] | TGI (A498 renal) [µM] | TGI (HOP-92 NSCLC) [µM]
COc1ccc(NS(=O)c2ccccc2OC)cc1 (centres undefined) | > 100 | 68.6 | 67.2 | > 100 | > 100 | 39.6 | > 100 | > 100 | 35.2 | > 100 | > 100 | > 100 | 84.5 | 18.1 | 79.8 | 54.4 | > 100 |  |  | 
COc1ccc([C@]23CCN(S(=O)(=O)c4ccc(C)cc4)[C@H]2[C@H](CO)C2(CC3)OCC(C)(C)CO2)cc1OC | > 100 | > 100 | > 100 | > 100 | > 100 |  | > 100 | > 100 | > 100 | > 100 | > 100 | > 100 |  | > 100 | > 100 | > 100 | > 100 | > 100 | > 100 | > 100
CC(=O)OC1CC[C@@]2(C)C(C1)CC(OC(C)=O)[C@@H]1C2CC(OC(C)=O)[C@]2(C)C(C(C)CC=C(c3ccc(Cl)cc3)c3ccc(Cl)cc3)CCC12 (some centres undefined) | > 100 |  | > 100 | 27.9 | > 100 | > 100 | > 100 | > 100 | > 100 |  |  | > 100 | > 100 | > 100 | > 100 | > 100 | > 100 | > 100 |  | 
CC(=O)N/N=C1/CC[C@@]2(C)C(=CC[C@H]3C4CCC(C(C)CCCC(C)C)[C@@]4(C)CCC32)C1(C)C (some centres undefined) | > 100 | > 100 | > 100 | > 100 | > 100 | > 100 | 34.1 | > 100 | > 100 | > 100 | > 100 | > 100 | > 100 | > 100 | > 100 | > 100 | > 100 | > 100 |  | > 100
O=c1oc2ccccc2c(O)c1C(c1ccc2c(c1)Cc1ccccc1-2)c1c(O)c2ccccc2oc1=O | 66.9 | 41.5 | 60.3 | 59.8 | > 100 | 68.4 | > 100 | 66.1 | > 100 | 66.7 | > 100 |  | 86.3 | 49.1 | 44.4 | 39.9 | > 100 | > 100 | > 100 | 49.3
Cc1n[nH]c(=O)n1/N=C/c1ccncc1 | > 100 | > 100 | > 100 |  | > 100 | > 100 | > 100 | > 100 | > 100 | > 100 | > 100 |  | > 100 | > 100 | > 100 | > 100 | > 100 | > 100 | > 100 | > 100
Cn1c(=O)cc(NCCc2ccccc2)[nH]c1=O | > 100 | > 100 | > 100 |  | > 100 | > 100 | > 100 | > 100 | > 100 | > 100 | > 100 |  | 50.7 | > 100 | > 100 | > 100 | > 100 | > 100 | > 100 | > 100
CCNc1nc2c(ncn2C2CC(O)C(COP(=O)(O)O)O2)c(=O)[nH]1 (centres undefined) | > 100 | > 100 | > 100 | > 100 | > 100 | > 100 |  | > 100 | > 100 | > 100 | > 100 | > 100 | > 100 | > 100 | > 100 | > 100 | > 100 | > 100 | > 100 | > 100
COc1ccc2c(c1)CCC1=C/C(=N\NC(N)=O)CCC12C (centres undefined) | > 10 | > 10 | > 10 | > 10 | > 10 | > 10 | > 10 |  | > 10 | > 10 | > 10 | > 10 | > 10 | > 10 | > 10 | > 10 | > 10 | > 10 |  | > 10
S=C1N=C(Cl)/C(=C\c2ccco2)N1 | > 100 | > 100 | > 100 | > 100 | > 100 | > 100 |  | > 100 | > 100 | > 100 | > 100 | > 100 | > 100 | > 100 | > 100 | > 100 | > 100 | > 100 | > 100 | > 100
CC(C)(CC#N)c1cc(CC(C)(C)c2cc(CC(C)(C)c3cc(C(C)(C)C4(C)OCCO4)no3)no2)no1 | 43.1 | 87.2 | > 100 |  | > 100 | > 100 | > 100 | > 100 | > 100 |  | > 100 |  | 88.7 | > 100 | > 100 | > 100 | > 100 | 43.5 | > 100 | 
C[C@H](CCC(=O)O)[C@H]1CC[C@H]2[C@@H]3[C@H](O)C[C@@H]4C[C@H](O)CC[C@]4(C)[C@H]3CC[C@]12C | > 100 | > 100 | > 100 | > 100 | > 100 | > 100 | 62 | > 100 | > 100 | > 100 | > 100 | 47.4 |  | > 100 | > 100 |  | > 100 | 57.4 | > 100 | 91.1
O=S(=O)(NC1OCCCC1I)c1ccccc1 (centres undefined) | > 100 | > 100 | > 100 |  | > 100 | > 100 | > 100 | > 100 | > 100 | > 100 | > 100 | > 100 | > 100 | > 100 | > 100 | > 100 | > 100 | > 100 | > 100 | > 100
Cc1cc(=O)oc2c(C)c3oc(CBr)c(Br)c3cc12 | 29.7 | 31.6 | > 100 | > 100 | > 100 | 78.6 | > 100 | 80 | 72.6 | 28.8 | > 100 | 98.5 | > 100 | 83.8 | 37.2 | 33.8 | 67.9 | 70 |  | 
O=C(NCCNCCNC(=O)C(F)(F)F)C(F)(F)F | > 100 | > 100 | > 100 | > 100 | > 100 | > 100 | > 100 | > 100 | > 100 | > 100 | > 100 | > 100 | > 100 | > 100 | > 100 | > 100 | > 100 |  |  | 
CC(=O)Oc1cc(C)c(OC(C)=O)c2c1[C@H]1CC[C@]3(C)[C@@H](OC(C)=O)CC[C@H]3[C@@H]1CC2 | 43.1 | 31.5 | 29.4 | 56.7 | 34.4 | 47.6 | 33.7 | 36 |  | 29.3 | 31.5 | > 100 | 57 | 28.6 | 34.4 | 31.3 | 30.2 | 52.1 | 32.8 | 23.7
CC(/C=N\NC(=S)N(C)C)=N/NC(=S)N(C)C | > 59.8 | > 56.2 | > 100 |  | > 51.1 | > 29.3 | > 100 | > 100 | 2.78 | > 100 | > 100 |  | 52.8 | > 60.9 | > 100 | 14.1 | 31.4 | > 100 | 20.1 | 31.2
CCOP(=O)(OCC)[C@]12C[C@@H](C)C=C[C@H]1COC2=O | > 100 | > 100 | > 100 |  | > 100 | > 100 | > 100 | > 100 | > 100 | > 100 | > 100 | > 100 | > 100 | > 100 | > 100 | > 100 | > 100 | > 100 | > 100 | 
CCOC(=O)C1=COC(C)(c2ccccc2)CC1=O (centres undefined) | > 100 | > 100 | > 100 |  | > 100 | > 100 | 98 | > 100 | > 100 |  | > 100 |  | > 100 | > 100 | > 100 | > 100 | > 100 | > 100 | > 100 | 
CC(=O)c1sc(Nc2ccc(Cl)c(Cl)c2)nc1C | > 100 | > 100 | > 100 |  | > 100 | > 100 | 83.8 | > 100 | > 100 | > 100 | > 100 | > 100 |  | > 100 | > 100 | > 100 | > 100 | > 100 | > 100 | 
Nc1cc(N2CCOCC2)nc(=O)n1-c1ccc(Cl)cc1 | > 100 | > 100 | > 100 | > 100 | > 100 |  | > 100 | > 100 | > 100 | > 100 | > 100 | > 100 |  | > 100 | > 100 | > 100 | > 100 | > 100 | > 100 | > 100
O=C(Cn1c2ccc(Br)cc2c2nc3ccccc3nc21)N/N=C/c1ccccc1 | 94.8 | > 100 | > 100 |  | 97.9 | > 100 |  | > 100 | > 100 |  | > 100 | > 100 |  | > 100 | > 100 | > 100 |  | > 100 | > 100 | 
CCCC(=O)Oc1ccc2c(C)cc(=O)oc2c1OC(=O)CCC | > 100 |  | > 100 |  | > 100 | > 100 | > 100 | > 100 |  | > 100 | > 100 | > 100 | > 100 | > 100 | > 100 | > 100 | > 100 | > 100 | > 100 | 99.6
CCN(CC)c1ccc2cc(C(=O)Nc3nc(C45CC6CC(CC(C6)C4)C5)cs3)c(=O)oc2c1 | > 100 | > 100 | > 100 | > 100 | > 100 | > 100 | > 100 | > 100 |  | > 100 | > 100 | > 100 | > 100 | > 100 | > 100 | > 100 | > 100 |  | > 100 | > 100
COC(=O)c1ccccc1C1CN=NC12Cc1cc(C)c(C)cc1C2=O (centres undefined) | > 100 | > 100 | > 100 | 46.9 | > 100 | > 100 | 89.8 | > 100 | > 100 | 92.7 | > 100 |  | > 100 | > 100 | > 100 | 38.1 | > 100 | > 100 | > 100 | 78.9
COC(=O)c1nc(-c2nc(CCNC(=O)OC(C)(C)C)sc2Cl)sc1Cl | > 100 |  | > 100 | > 100 | > 100 | > 100 | > 100 | > 100 |  |  | > 100 | > 100 | > 100 | > 100 | > 100 | > 100 | > 100 | > 100 | > 100 | 67.2

Reference: PubChem BioAssay (NCI)
